IC50 data for 12 molecules are collected here from patent publication US12297203B2, “Pyrrolopyrimidine ITK inhibitors” (ACLARIS THERAPEUTICS, INC., priority 2018, dated 2025).

Where two headings read alike, the source gives them in different places.

Test [1] deals with JAK1/3 phosphorylation of its substrate, STAT5, at Y694. Nature of the test: JAK1/3 target modulation assay (IL-2 stimulated STAT5 Y694 phosphorylation in PBMC). It is filed as cell-based. The note with it: Primary human peripheral blood mononuclear cells, IL-2 25 ng/mL, read-out: IL2-STAT5 Inh. IC50. As for the experimental part: Target modulation was based upon the ability of a compound to inhibit JAK1/3 phosphorylation of its substrate, STAT5, at Y694. Primary human peripheral blood mononuclear cells were plated in V-bottom 96 well plates at 200,000 cells/well in 120 μL medium (RPMI-1640 with 10% fetal bovine serum, 10 mM HEPES buffer, 12.2 mM 2-mercaptoethanol, and supplemented with glutamine/penicillin/streptomycin). Compounds were added as 15 μL of 10× working stock solutions in medium with 1% DMSO (or medium with 1% DMSO for controls) and placed in a 37° C. incubator with gentle shaking for 1 hour. Stimulation was carried out using recombinant human IL-2 (R&D Systems #202-IL-050) to activate JAK1/3. IL-2 stock solution was diluted in media to 250 ng/mL and was added rapidly to all compound containing and stimulation only wells at 15 μL/well (final concentration=25 ng/mL). Wells designated ‘unstimulated’ received 15 μL of media only. The plate was placed back in a 37° C. incubator with gentle shaking for 5 minutes. After stimulation, the plates were immediately sealed with a plate seal, and cells pelleted at 400× g for 5 minutes. Media was removed using a multichannel aspirator, and 75 μL of cold Tris lysis buffer (MSD #R60TX-3) plus 1× Protease Inhibitor Solution (MSD #R70AA-1), 1× Phosphatase Inhibitor I (MSD #R70AA-1), and 1× Phosphatase Inhibitor II (MSD #R70AA-1) was added per well. Cells were incubated at 4° C. with gentle shaking for at least 30 minutes to allow for complete lysis. The plates were removed from 4° C., and 25 μL of lysate from each well was added to the corresponding well on the MSD plate. Samples were analyzed by either an MSD multiplex kit for Phospho-STAT5a,b/Total-STAT5a,b (MSD #K15163D) or an MSD single-plex kit for Phospho-STAT5a,b (MSD #K150IGD). The protocols for the respective kits were followed, and the plates were read on the MSD SECTOR S 600.

Test [2] relates to ITK phosphorylation of its substrate, PLCγ1, at Y783. Nature of the test: ITK target modulation assay (PLCγ1 Y783 phosphorylation, anti-CD3 stimulated Jurkat T cells). It is filed as cell-based. As to conditions: anti-CD3 Dynabeads stimulation, read-out: PLC-γ Inh. IC50. The protocol:
Target modulation was based upon the ability of a compound to inhibit ITK phosphorylation of its substrate, PLCγ1, at Y783. Human Jurkat T cells (ATCC TIB-152) were plated in V-bottom 96 well plates at 400,000 cells/well in 80 μL medium (RPMI1640 with 10% heat inactivated serum and 55 μM 2-mercaptoethanol and supplemented with glutamine/penicillin/streptomycin). Compounds were added as 10 μL of 10× working stock solutions in medium with 1% DMSO (or medium with 1% DMSO for controls) and placed in a 37° C. incubator with gentle shaking for 1 hour. Stimulation was carried out using anti-CD3 Dynabeads (Invitrogen catalog #1151D) to activate the T cell receptor and mimic antigen presenting cells. Beads were washed and resuspended in medium at 1.84×10^8 beads/ml. Beads were added rapidly to all compound containing and stimulation only wells at 10 μL/well (bead:cell=2:1) with gentle mixing of the bead source between each addition. Wells designated ‘unstimulated’ received 10 μL of media only. The plate was immediately sealed with a plate seal and cells pelleted at 400× g for 4 minutes. Media was removed using a multichannel aspirator, 25 μL of cold hypotonic lysis buffer (VWR M334-100 ml) plus 1×HALT Protease Inhibitor Cocktail (ThermoFisher #78437), 1× Phosphatase Inhibitor Cocktail 2 (Sigma Aldrich #P5726), 1× Phosphatase Inhibitor Cocktail 3 (Sigma Aldrich #P0044) and 2 mM PMSF was added per well. Cells were incubated on ice for 30 minutes to swell the cells then lysed by pipetting 20 times using a multichannel pipet. The plates were then resealed and centrifuged for 5 minutes at 400× g to pellet the cellular debris. Two μL of the soluble component of each sample was spotted onto nitrocellulose and allowed to dry for 30 minutes. Nitrocellulose was wet in 1× Tris Buffer Saline (20 mM Tris pH7.5, 150 mM NaCl) then blocked in LiCOR Odyssey Blocking Buffer (TBS) (LiCOR #927-50000) for 1 hour at room temperature with rocking. Following blocking, nitrocellulose was incubated in LiCOR Odyssey Blocking Buffer (TBS) plus 0.2% Tween20 plus anti-phospho-PLCγ1 (Y783) antibody (CST #2821S) at 1:1000 and anti-PLCγ1 (Abcam #41433) at 1:5000 with gentle rocking overnight at 4° C. Nitrocellulose was then washed four times for 5 minutes each with TBS plus 0.1% Tween20 (TBST) then incubated in LiCOR Odyssey Blocking Buffer (TBS) plus 0.2% Tween20 plus secondary antibodies IRDye 800CW (LiCOR 926-32211) and IRDye 680RD (LiCOR 926-68070) both at 1:15,000 with gentle rocking at room temperature in the dark for 1 hour. Nitrocellulose was then washed four times for 5 minutes each with TBST at room temperature in the dark. A final rinse with TBS was done prior to imaging and quantifying using the LiCOR Odyssey Imager and software respectively.

Test [3] deals with JAK3 (Homo sapiens (Human), UniProt P52333). Nature of the test: JAK3 enzyme activity assay (Caliper mobility shift). It is filed as biochemical. The note with it: ATP at Km level; read-out: JAK3 Inh. IC50. The source says: The ability of candidate compounds to interact with JAK3 is quantitated by a mobility shift assay using an LC3000 instrument developed by Caliper Life Sciences. This assay is based on mobility shift electrophoresis, in which fluorescently labelled product and fluorescently labelled substrate peaks are separated and detected independently. JAK3 product/substrate separation is obtained using the following instrument settings: Pressure=−1.4 psi, Downstream voltage=−2550V and Upstream voltage=−800V. The inhibitory potency of candidate compounds of JAK3 is measured in 20 mM HEPES pH 7.5, 10 mM MgCl2, 0.01% BSA, 0.0005% Tween-20, and 2% DMSO in the presence of 2.5 nM JAK3 (Life Technologies Catalog #PV3855), […] (Anaspec Catalog #AS-64106) and […] (Km level) using a 384-well plate format. Background signal is defined in the absence of enzyme and uninhibited signal is defined in the presence of vehicle (2% DMSO) alone. Compounds were evaluated in an 11 point dose-response ranging from […] to 0.34 nM. IC50 values of compounds are determined using a 4 parameter logistical fit of emission ratio as a function of the concentration of compound.
Chain of JAK3 (P52333 781-1124): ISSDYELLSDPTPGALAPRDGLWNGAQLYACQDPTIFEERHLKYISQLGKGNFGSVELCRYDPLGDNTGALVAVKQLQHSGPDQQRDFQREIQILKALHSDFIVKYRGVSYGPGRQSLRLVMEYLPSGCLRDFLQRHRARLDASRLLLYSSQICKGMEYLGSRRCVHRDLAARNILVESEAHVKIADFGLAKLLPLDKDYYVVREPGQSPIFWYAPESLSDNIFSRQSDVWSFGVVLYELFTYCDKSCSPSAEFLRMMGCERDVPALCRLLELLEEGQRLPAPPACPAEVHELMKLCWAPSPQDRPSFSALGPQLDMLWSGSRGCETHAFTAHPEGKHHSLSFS

Test [4] concerns the target ITK (Homo sapiens (Human), UniProt Q08881). Nature of the test: ITK inhibitor binding potency (LanthaScreen competitive binding assay). As to conditions: read-out: ITK Inh. IC50. The source says: The ability of candidate compounds to interact with ITK is quantitated by a competitive binding assay using the LanthaScreen technology developed by Life Technologies. This assay is based on the binding of a proprietary, Alexa Fluor® 647-labeled, ATP-competitive kinase inhibitor (kinase tracer-236) to the ITK expression construct in the presence of a Europium-conjugated antibody, resulting in a FRET (fluorescence resonance energy transfer) signal. Displacement of the kinase tracer by compound results in a lower emission ratio upon excitation of the Europium chelate. Candidate compounds are designed as potential irreversible inhibitors of ITK, capable of ligating to an active site cysteine residue resulting in time dependent covalent binding. The time dependent nature of irreversible inhibition is investigated by performing the binding assay with and without a pre-incubation of compound and ITK. […] The inhibitory potency of candidate compounds is measured in 20 mM HEPES pH 7.5, 10 mM MgCl2, 0.01% BSA, 0.0005% Tween-20, and 2% DMSO in the presence of 10 nM ITK, 2 nM Eu-anti-GST antibody, and 50 nM kinase tracer-236 using a 384-well plate format. Background signal is defined in the absence of ITK and uninhibited signal is defined in the presence of vehicle (2% DMSO) alone. Compounds were evaluated in an 11 point dose-response ranging from 20 uM to 0.34 nM. The binding assays are performed under two preincubation conditions to evaluate time dependence of inhibition. For the pre-incubation assay, ITK and Eu-anti-GST antibody are pre-incubated with compound or vehicle for two hours prior to the addition of kinase tracer. The non-preincubated assay is run under conditions where ITK and Eu-anti-GST antibody are added to a mixture of compound and kinase tracer. IC50 values of compounds are determined using a 4 parameter logistical fit of emission ratio as a function of the concentration of compound.

Chain of ITK (Q08881 whole entry): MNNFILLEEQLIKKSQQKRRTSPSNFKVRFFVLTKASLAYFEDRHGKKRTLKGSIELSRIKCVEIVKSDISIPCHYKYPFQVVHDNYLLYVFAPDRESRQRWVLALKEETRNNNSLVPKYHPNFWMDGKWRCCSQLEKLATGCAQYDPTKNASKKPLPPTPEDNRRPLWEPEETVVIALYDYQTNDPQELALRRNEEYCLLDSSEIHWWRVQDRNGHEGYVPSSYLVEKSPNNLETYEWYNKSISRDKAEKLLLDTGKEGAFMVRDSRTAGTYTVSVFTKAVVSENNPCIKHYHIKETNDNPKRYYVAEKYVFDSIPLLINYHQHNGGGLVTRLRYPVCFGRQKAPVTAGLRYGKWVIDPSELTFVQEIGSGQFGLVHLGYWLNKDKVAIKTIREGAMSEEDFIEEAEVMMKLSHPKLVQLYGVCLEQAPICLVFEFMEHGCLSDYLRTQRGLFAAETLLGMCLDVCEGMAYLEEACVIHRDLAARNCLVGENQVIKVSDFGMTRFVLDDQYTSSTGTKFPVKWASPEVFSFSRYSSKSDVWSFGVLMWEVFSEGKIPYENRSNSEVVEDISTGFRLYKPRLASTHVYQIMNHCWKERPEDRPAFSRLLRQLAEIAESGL

As for `C=CC(=O)N1CCC[C@@H](Nc2ccnc3[nH]cc(C(=O)C4CC4)c23)C1` [Example 9, (R)-1-(3-((3-(cyclopropanecarbonyl)-1H-pyrrolo[2,3-b]pyridin-4-yl)amino)piperidin-1-yl)prop-2-en-1-one], the IC50 is 100 to 1000 nM in test [1] (Homo sapiens, PBMC); 100 to 1000 nM in test [2] (Homo sapiens, Jurkat); no more than 10 nM in test [3]; no more than 10 nM in test [4].

`C=CC(=O)N1C[C@H](Nc2ncnc3[nH]cc(CC4CC4)c23)CC[C@@H]1C(C)C` (single isomer, unassigned) [Example 43]: the IC50 is greater than 1000 nM in test [1] (Homo sapiens, PBMC); greater than 1000 nM in test [2] (Homo sapiens, Jurkat); greater than 100 nM in test [3]; greater than 100 nM in test [4].

As to `C=CC(=O)N1CCC[C@@H](Nc2ncnc3[nH]cc(CC4CCCC4)c23)C1` [Example 22, (R)-1-(3-((5-(cyclopentylmethyl)-7H-pyrrolo[2,3-d]pyrimidin-4-yl)amino)piperidin-1-yl)prop-2-en-1-one], the IC50 in test [1] (Homo sapiens, PBMC) is 100 to 1000 nM; in test [2] (Homo sapiens, Jurkat), 100 to 1000 nM; in test [3] it was no more than 10 nM; in test [4] it was no more than 10 nM.

With `C=CC(=O)N1C[C@H](Nc2ncnc3[nH]cc([C@H]4[C@@H](C)C4(F)F)c23)CC[C@@H]1C` (single isomer, unassigned) [Example 55], the IC50 in test [1] (Homo sapiens, PBMC) is no more than 100 nM; in test [2] (Homo sapiens, Jurkat), 100 to 1000 nM; in test [3], no more than 10 nM; in test [4], no more than 10 nM.

Consider `C=CC(=O)N1C[C@H](Nc2ncnc3[nH]cc([C@H]4CC4(F)F)c23)CC[C@@H]1CC` (single isomer, unassigned) [Example 67], for which the IC50 was greater than 1000 nM in test [1] (Homo sapiens, PBMC); greater than 1000 nM in test [2] (Homo sapiens, Jurkat); greater than 100 nM in test [3]; greater than 100 nM in test [4].

With `C=CC(=O)N1C[C@H](Nc2ccnc3[nH]cc([C@H]4CC4(F)F)c23)CC[C@@H]1C` (single isomer, unassigned) [Example 73], the IC50 in test [1] (Homo sapiens, PBMC) was no more than 100 nM; in test [2] (Homo sapiens, Jurkat), no more than 100 nM; in test [3], no more than 10 nM; in test [4], no more than 10 nM.

Take `C=CC(=O)N1C[C@H](Nc2ncnc3[nH]cc([C@H]4[C@H](C)C4(F)F)c23)CC[C@@H]1C` (single isomer, unassigned) [Example 56]: the IC50 in test [1] was 100 to 1000 nM; in test [2] (Human Jurkat T cells), 100 to 1000 nM; in test [3], no more than 10 nM; in test [4], no more than 10 nM.

For `C=CC(=O)N1C[C@H](Nc2ncnc3[nH]cc([C@H]4C(C)(C)C4(F)F)c23)CC[C@@H]1C` (single isomer, unassigned) [Example 53], the IC50 was no more than 100 nM in test [1] (Homo sapiens, PBMC); 100 to 1000 nM in test [2] (Homo sapiens, Jurkat); no more than 10 nM in test [4].

For `C=CC(=O)N1CCC[C@@H](Nc2ncnc3[nH]cc([C@@]45CCC[C@@H]4C5(F)F)c23)C1` (single isomer, unassigned) [Example 79, 1-((R)-3-((5-((1R,5S)-6,6-difluorobicyclo[3.1.0]hexan-1-yl)-7H-pyrrolo[2,3-d]pyrimidin-4-yl)amino)piperidin-1-yl)prop-2-en-1-one], the IC50 in test [4] was no more than 10 nM.

As for `C[C@H]1CC[C@@H](Nc2ncnc3[nH]cc(C4CC4(F)F)c23)CN1C(=O)/C=C/CN(C)C` (mixture of isomers) [Example 59, (E)-1-((2S,5R)-5-((5-(2,2-difluorocyclopropyl)-7H-pyrrolo[2,3-d]pyrimidin-4-yl)amino)-2-methylpiperidin-1-yl)-4-(dimethylamino)but-2-en-1-one], the IC50 in test [2] (Homo sapiens, Jurkat) was no more than 100 nM; in test [3] it was 10 to 100 nM; in test [4] it was no more than 10 nM.

As for `C=CC(=O)N1C[C@H](Nc2ncnc3[nH]cc(C(=O)C(F)(F)F)c23)CC[C@@H]1C` [Example 33, 1-((2S,5R)-2-methyl-5-((5-(2,2,2-trifluoroacetyl)-7H-pyrrolo[2,3-d]pyrimidin-4-yl)amino)piperidin-1-yl)prop-2-en-1-one], the half-inhibitory concentration (IC50) in test [2] (Homo sapiens, Jurkat) was 100 to 1000 nM; in test [3], 10 to 100 nM; in test [4], no more than 10 nM.

For the molecule `C=CC(=O)N1CCC[C@@H](Nc2ncnc3[nH]cc([C@@]45CCC[C@@H]4C5(F)F)c23)C1` (single isomer, unassigned) [Example 79], the IC50 in test [1] (Homo sapiens, PBMC) was 100 to 1000 nM; in test [2] (Homo sapiens, Jurkat) it was 100 to 1000 nM; in test [3] it was no more than 10 nM.
